Source: patent publication US8791154B2 (Alcon Research, Ltd., priority 2011, dated 2014)
Converted amounts (≈) assume the structure as drawn.

Experiment: Olopatadine solubility in water and in formulations
Type: physicochemical
Details: for solubility: Concentration (mg/mL) of solubilized olopatadine

Structure (SMILES): CN(C)CC/C=C1/c2ccccc2COc2ccc(CC(=O)O)cc21 [Olopatadine]
- solubility (formulation with PVP K29/32, SBE-CD, PEG 400 and HPMC, pH 6.96, aqueous with cosolvent or surfactant or cyclodextrin, 4% PVP K29/32, 1.5% SBE-CD, 4% PEG 400, 0.6% HPMC, final pH 6.96): 7460 µg/mL (≈ 22.1 mM)
- solubility (formulation with PVP K29/32, SBE-CD, PEG 400 and HPMC, pH 7.01, aqueous with cosolvent or surfactant or cyclodextrin, 4% PVP K29/32, 2.3% SBE-CD, 4% PEG 400, 0.6% HPMC, final pH 7.01): 8660 µg/mL (≈ 25.7 mM)
- solubility (formulation with PVP K29/32, SBE-CD, PEG 400 and HPMC, pH 7.02, aqueous with cosolvent or surfactant or cyclodextrin, 4% PVP K29/32, 2.2% SBE-CD, 4% PEG 400, 0.6% HPMC, final pH 7.02): 8620 µg/mL (≈ 25.5 mM)
- solubility (formulation with PVP K29/32, SBE-CD, PEG 400 and HPMC, pH 7.04, aqueous with cosolvent or surfactant or cyclodextrin, 4% PVP K29/32, 2.5% SBE-CD, 4% PEG 400, 0.6% HPMC, final pH 7.04): 9040 µg/mL (≈ 26.8 mM)
- solubility (formulation with PVP K29/32, SBE-CD, PEG 400 and HPMC, pH 7.06, aqueous with cosolvent or surfactant or cyclodextrin, 4% PVP K29/32, 2.0% SBE-CD, 4% PEG 400, 0.6% HPMC, final pH 7.06): 8110 µg/mL (≈ 24 mM)
- solubility (pH 6.97, aqueous with cosolvent or surfactant or cyclodextrin, 4% PVP K29/32, 1.5% SBE-CD, 4% PEG 400, no HPMC, final pH 6.97): 6130 µg/mL (≈ 18.2 mM)
- solubility (pH 6.97, aqueous with cosolvent or surfactant or cyclodextrin, 4% PVP K29/32, 2.0% SBE-CD, 4% PEG 400, no HPMC, final pH 6.97): 6740 µg/mL (≈ 20 mM)
- solubility (pH 6.98, aqueous with cosolvent or surfactant or cyclodextrin, 4% PVP K29/32, 2.5% SBE-CD, 4% PEG 400, no HPMC, final pH 6.98): 7340 µg/mL (≈ 21.8 mM)
- solubility (pH 7.01, aqueous with cosolvent or surfactant or cyclodextrin, 4% PVP K29/32, 2.2% SBE-CD, 4% PEG 400, no HPMC, final pH 7.01): 6970 µg/mL (≈ 20.7 mM)
- solubility (pH 7.02, aqueous with cosolvent or surfactant or cyclodextrin, 4% PVP K29/32, 2.3% SBE-CD, 4% PEG 400, no HPMC, final pH 7.02): 7160 µg/mL (≈ 21.2 mM)
- solubility in water (water, pH about 7.0, room temperature, olopatadine by itself): about 0.18 w/v %
